# Experimental data: patent US11007169B2, “Cis-gnetin H and trans-gnetin H as therapeutic agents” (MIDDLE TENNESSEE STATE UNIVERSITY, priority 2014, dated 2021)
# Columns and labels:
# [1] = test system: A549 cells (human lung carcinoma); experiment: Inhibition of cell proliferation, AlamarBlue fluorescent assay, A549; assay type: cell-based; conditions: for inhibition at 10 µM: 48-hours treatment; for IC50: 48 hours, AlamarBlue, cancer cell line
# Procedure: (§1) The cancer cell lines used in this study included human lung carcinoma (A549), human breast carcinoma (BT20 and MCF-7) and human osteosarcoma (U2OS), with the normal cell lines human peripheral lung epithelial cells (HPL1A) and human mammary epithelial cells (HMEC) serving as controls. A549, BT20, MCF-7, U2OS and HMEC cells were purchased from American Type Culture Collection (ATCC, USA), and HPL1A cells were obtained from Nagoya University, Japan. A549 and BT20 were grown in RPMI-1640 (Sigma), MCF-7 was grown in Dulbecco's Modified Eagle Medium (DMEM) (Sigma) supplemented with 0.01 mg/ml human recombinant insulin (Sigma), U2OS and HMEC were grown in McCoy's 5A (ATCC), and HPL1A was grown in DMEM/F-12K (Sigma). The mediums were supplemented with 10% Fetal Bovine Serum (FBS) (Gibco), 1% penicillin and streptomycin and incubated in a humidified atmosphere with 5% CO2 at 37° C.
# (§2) The proliferation inhibition potential of cis- and trans-gnetin H was determined by a fluorescence dye staining method. Cells were seeded in a 96-well tissue culture-treated plate (BD Falcon) at a density of 4000 cells/well, and treated with cis- or trans-gnetin H for 48 hours. AlamarBlue dye (Invitrogen) was used to assess the viability of cells according to the manufacturer's instructions; the fluorescent intensity was read on a SpectraMax M2e microplate reader (Molecular Devices Inc.).
# (§3) For the determination of IC50 values, cells were treated with a serial dilution (320 μM, 100 μM, 32 μM, 10 μM, 3.2 μM, and 0.32 μM) of cis- or trans-gnetin H for 48 hours. Cell viability was determined with AlamarBlue dye (Invitrogen) and the IC50 values were calculated using non-linear regression analysis.
# [2] = test system: BT20 cells (human breast carcinoma); experiment: Inhibition of cell proliferation, AlamarBlue fluorescent assay, BT20; assay type: cell-based; conditions: for inhibition at 10 µM: BT-20, 10 uM, 48-hours treatment; for IC50: BT-20, 48 hours, AlamarBlue, cancer cell line
# Procedure: as §1, §2, §3
# [3] = Stability testing, 6 months in the dark at room temperature, HPLC; assay type: physicochemical; conditions: 6-month storage in the dark at room temperature, 1 mg/ml in methanol
# Procedure: For stability testing, cis- and trans-gnetin H were dissolved with methanol to a concentration of 1 mg/ml. The stock solutions were sealed in a glass bottle and kept in the dark at room temperature for 6 months and then the purity of the two compounds was tested using the HPLC method previously described (He et al., J. Liq. Chromatog. Rel. Technol. 2013; 36:1708-1724). For conversion testing, cis- and trans-gnetin H were individually illuminated with a 12-watt fluorescent lamp for 2, 4 and 6 hours, and the compounds were identified using HPLC.
# BT20 cells = experiment: Cell cycle analysis by flow cytometry, BT20; assay type: cell-based, human; conditions: 100 μM, 24 hours
# Procedure: A549 and BT20 cells were first synchronized in the G0 phase by culturing cells for 24 hours in serum-free medium and then treated with 100 μM cis- or trans-gnetin H for 24 hours, respectively. Cell cycle analysis was done using propidium iodide (PI) staining as described (An et al., Mol. Cancer Ther. 2007; 6:61-9) and the cells were analyzed on a Guava Flow Cytometer with InCyte software (Millipore).
# [4] = test system: p65 (RelA) nuclear translocation in THP-1 cells; experiment: Indirect immunofluorescence for NF-κB nuclear translocation; assay type: cell-based, human; conditions: pretreated 1 h, LPS 30 min; Bay 11-7082 10 μM
# Procedure: (§4) THP-1 cells were maintained in RPMI 1640 medium supplemented with 10% complement-inactivated FBS and 1% penicillin/streptomycin (complete culture medium) at 37° C. with 5% CO2 supplemented. Cell concentrations were adjusted to desired concentrations for each experiment by centrifugation at 500×g for 5 min and resuspended in complete culture medium with 100 nM of PMA. Cell concentration was adjusted to 5×10^5 cells/ml for all assays and 2.5×10^5 cells/ml were used for NF-κB nuclear translocation assay. Cells were seeded onto 96-, 24-, or 12-well plates and incubated for 48 to 72 h to allow for differentiation. Cells were washed with serum-free RPMI 1640 medium before each experiment to remove the undifferentiated cells.
# Differentiated THP-1 cells were pretreated with 50 μM of cis-gnetin H, trans-gnetin H, or 10 μM of Bay 11-7082 for 1 h and stimulated with 1 μg/ml of LPS for 30 min. Bay 11-7082 is a compound that inhibits IKK α/β and IκB α phosphorylation and was used as a positive control (Juliana et al., 2010, J. Biol. Chem., 285:9792-802). Treated cells were fixed, permeabilized, blocked, and stained with NF-κB, p65 primary antibody, Dylight 488 conjugated secondary antibody, and Hoechst 33342 dye, sequentially. The Hoechst and DyLight fluorophores detect changes in nuclear morphology (blue fluorescence) and NF-κB distribution (green fluorescence) respectively. Nuclear Translocation Bioapplication software on the Arrayscan VTI reader was used for image acquisition and analysis. For each well, at least 400 cells were automatically acquired and analyzed. The translocation index was calculated by measuring the average intensity difference of NF-icB between the identified cytoplasmic region and nuclear region.
# [5] = test system: phosphorylated IκB α (Ser32) in LPS-stimulated THP-1 cells; experiment: Western blot, IκB α phosphorylation; assay type: cell-based, human; conditions: concentration-dependent
# Procedure: as §4
# Differentiated THP-1 cells were pretreated with various concentrations of cis-gnetin H, trans-gnetin H, or 10 μM of Bay 11-7082 for 1 h and stimulated with 1 μg/ml of LPS for 15 min. Cells were lysed with radio-immunoprecipitation assay (RIPA; 1% Triton X-100, 0.5% Sodium deoxycholate, 0.1% sodium dodecyl sulfate, 150 mM sodium chloride, and 50 mM Tris-chloride) lysis buffer that contained protease and phosphatase inhibitor cocktail. Cell lysates were then tested for protein concentration using a BCA protein assay, and diluted with RIPA lysis buffer to normalize protein concentration in all samples. […]
IC50 [1],IC50 [2],chemical identity after storage [3],Structure (SMILES),inhibition at 10 µM [1],inhibition at 10 µM [2],"G0-G1 subpopulation, BT20 (BT20 cells)","M and G2-S subpopulation, BT20 (BT20 cells)",p65 nuclear translocation [4],IκB α phosphorylation [5]
2800 nM,2150 nM,no obvious changes,Oc1ccc(/C=C\c2c3c(cc4c2[C@H](c2cc(O)cc(O)c2)[C@@H](c2ccc(O)cc2)O4)O[C@H](c2ccc(O)cc2)[C@H]3c2cc(O)cc(O)c2)cc1 [cis-gnetin H],~99%,~99%,increased significantly,significant decrease,inhibited the p65 nuclear translocation,significantly inhibited
2600 nM,1350 nM,no obvious changes,Oc1ccc(/C=C/c2c3c(cc4c2[C@H](c2cc(O)cc(O)c2)[C@@H](c2ccc(O)cc2)O4)O[C@H](c2ccc(O)cc2)[C@H]3c2cc(O)cc(O)c2)cc1 [trans-gnetin H],~99%,~99%,increased significantly,significant decrease,inhibited the p65 nuclear translocation,significantly inhibited
